Experimental data published in patent publication US6500414B2, “Aromatic dimethicone copolyol polymers as sunscreen agents in personal care applications” (Siltech LLC, priority 2000, dated 2002).

Assay: UV maxima for the absorption
Assay type: physicochemical
Conditions: spectral region of the absorption
Excerpt: The following comparison is a common silicone backbone, with differing, “b”, and “c” values. The effect upon solubility at 5% in water and the UV maxima for the absorption are quite dramatic.

- UV absorption region: UV-C region
SMILES: C=CCc1ccc(O)c(OC)c1 [eugenol, 2-methoxy-4-(2 propenyl)phenol]
